Our source for the viability, T/C and IC50 values is PubChem BioAssay AID2060486 (Molecular Pharmacology Branch, DTP, NCI, 2025).

The test concerns IGROV1 complex spheroids (HUVEC, MSC), viability % test/control. Briefly: Anticancer human tumor IGROV1 cell line growth inhibition [GQUAD].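 For all read-outs here: spheroids exposed to compounds for 7 days before readout.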 The conditions noted are these: for viability, T/C: stronger effect = lower value; for IC50: curve of compound. The text has this: DNA G-quadruplex Stabilizer Agents in Combinations in Complex Spheroids
A high-throughput screen of multi-cell type tumor spheroids was designed to identify active combinations of DNA G-quadruplex stabilizer agents and targeted small molecules. Complex spheroids include a stromal component modeled by human endothelial cells (HUVEC) and fibroblasts modeled by human mesenchymal stem cells (MSCs). The concentration ranges selected for each drug and investigational agent were based upon clinically achievable concentrations if the clinical Cmax of the agent was known.
Compounds. The drugs and investigational agents: pidnarulex (CX-5461; NSC782164), APTO-253 (NSC789042), BRACO-19 (NSC847499), peposertib (NSC802822), ceralasertib (NSC780249), elimusertib (NSC800525), camonsertib (NSC841442), AZD-1390 (NSC803789), olaparib (NSC753686), talazoparib (NSC767125), ART-558 (NSC835418), sotorasib (NSC818433), MRTX-1133 (NSC836407), SN-38 (NSC673596), topotecan (NSC609699), etoposide (NSC141540), doxorubicin (NSC123127), gemcitabine (NSC613327), 5-fluorouracil (NSC19893), paclitaxel (NSC125973), vemurafenib (NSC761431), panobinostat (NSC761190), R-306465 (JNJ-16241199; NSC773264), adavosertib (NSC754352), TP-3654 (NSC805149), carboplatin (NSC241240), KSQ-4279 (NSC840948), and staurosporine (NSC755774) were obtained from the National Cancer Institute (NCI) Developmental Therapeutics Program Chemical Repository (34). The FDA-approved anticancer drug set is available from the NCI Developmental Therapeutics Program. […] The stock solutions were prepared in dimethyl sulfoxide (DMSO, Sigma-Aldrich, St. Louis, MO, cat. D2650) at 800-fold the tested concentration and stored at -70 degrees C prior to their use. All drugs and investigational agents were tested over a range starting from a high concentration at or near the clinical Cmax and decreasing in half-log increments. If the clinical Cmax for an agent had not been determined, the highest concentration tested was 10 microM.
2.3 Cell Culture. All cells were maintained in an incubator at 37 degrees C and 5% CO2 with 95% humidity. The PDC lines were cultured according to standard operating procedures established by the NCI PDMR. All PDCs were thawed and cultured in Matrigel-coated flasks prepared with a working solution of 1X Ham's F-12 nutrient mix, without supplementation (Invitrogen, cat. 11765054), 100 U/mL penicillin-streptomycin (Invitrogen, cat. 15140122), and 2.5% Matrigel (Corning Inc., cat. 354248) for the first three passages. The 857933-349-R-J2-PDC line was cultured in 6C/Colon 1B media, which includes advanced DMEM/F-12 (Thermo Fisher Scientific, cat. 12634028), 10 mM HEPES (Thermo Fisher Scientific, cat. 15630080), 1X GlutaMAX supplement (Thermo Fisher Scientific, cat. 35050061), 0.1 mg/mL primocin (InvivoGen, cat. ant-pm-2), 10% defined fetal bovine serum, heat inactivated (HyClone Laboratories Inc., cat. SH30070.03HI), 50% L-WRN conditioned media (ATCC, cat. CRL-3276), 1.25 mM N-Acetyl-L-cysteine (Sigma-Aldrich, cat. A9165), 10 mM nicotinamide (Sigma-Aldrich, cat. N0636), 1X B-27 supplement (Thermo Fisher Scientific, cat. 17504044), 1X N-2 supplement (Thermo Fisher Scientific, cat. 17502048), 10 microM Y-27632 dihydrochloride (Tocris Bioscience, cat. 1254), and 50 ng/mL human EGF recombinant protein (Thermo Fisher Scientific, cat. PHG0311). The 485176-168-R4-J1-PDC line was cultured in Panc media, which includes all 6C/Colon 1B media components plus 100 ng/mL human FGF-10 (Thermo Fisher Scientific, cat. 100-26), 500 nM SB-431542 (Selleckchem, cat. S1067), and gastrin (Tocris, cat. 3006).
[…]

Values joined by “and” are separate entries in the source; they are usually repeats but may differ in a detail not shown here. Equal values may be shown once.

As for `C#Cc1c(F)ccc2cc(O)cc(-c3ncc4c(N5CC6CCC(C5)N6)nc(OCC56CCCN5CC(F)C6)nc4c3F)c12` (stereo not given), the IC50 is > 10000 nM and 9690 nM. The viability, T/C (compound 0.0316 µM) was 88.9% and 93.9% and 107%. In addition, under “compound 0.1 µM”, the viability, T/C was 86.7% and 79.6% and 89.4%. The viability, T/C (compound 0.316 µM) was 81.5% and 89.6% and 96.4%. In addition, the viability, T/C (compound 1 µM) is 87.2% and 88.1% and 95.8%. For the same molecule, the viability, T/C (compound 3.16 µM) was 82% and 85% and 88.4%. The viability, T/C (compound 10 µM) was 51.3% and 49% and 64.6%.

Take `C=CC(=O)N1CCN(c2nc(=O)n(-c3c(C)ccnc3C(C)C)c3nc(-c4c(O)cccc4F)c(F)cc23)C(C)C1` (stereo not given): the IC50 is greater than 10000 nM. The viability, T/C (compound 0.0316 µM) was 102% and 105% and 117%. Also, the viability, T/C (compound 0.1 µM) was 95.2% and 95.3% and 106%. In addition, the viability, T/C (compound 0.316 µM) is 113% and 105% and 110%. The viability, T/C (compound 1 µM) was 93% and 104% and 122%. The viability, T/C (compound 3.16 µM) was 79.5% and 98.5% and 104%. The viability, T/C (compound 10 µM) is 82.3% and 101% and 92%.

As to `CC(=O)O[C@H]1C(=O)[C@@]2(C)[C@H]([C@H](OC(=O)c3ccccc3)[C@]3(O)C[C@H](OC(=O)[C@H](O)[C@@H](NC(=O)c4ccccc4)c4ccccc4)C(C)=C1C3(C)C)[C@]1(OC(C)=O)CO[C@@H]1C[C@@H]2O`, the IC50 is less than 31.6 nM. For the same molecule, the viability, T/C (compound 0.0316 µM) is 5.95% and 6.39% and 7.02%. Also, for the setting “compound 0.1 µM”, the viability, T/C was 6.41% and 7.03% and 6.33%. Besides, the viability, T/C (compound 0.316 µM) was 5.74% and 6.73% and 6.26%. Also, where the note is “compound 1 µM”, the viability, T/C is 5.25% and 5.94% and 5.15%. For the same molecule, the viability, T/C (compound 3.16 µM) was 5.64% and 4.86% and 4.9%. The viability, T/C (compound 10 µM) was 4.25% and 4.95% and 4.52%.

As for `CC(C)n1c(=O)n(C)c2cnc3cc(F)c(-c4ccc(OCCCN5CCCCC5)nc4)cc3c21`, the IC50 was 2820 nM and 4020 nM and 4200 nM. Besides, where the note is “compound 0.0316 µM”, the viability, T/C was 91.1% and 96.5% and 97%. For the same molecule, the viability, T/C (compound 0.1 µM) is 87.8% and 82.1% and 91.4%. Further, the viability, T/C (compound 0.316 µM) was 91.3% and 101% and 92.9%. Moreover, the viability, T/C (compound 1 µM) was 68.5% and 77.6% and 81.7%. Where the note is “compound 3.16 µM”, the viability, T/C was 49.1% and 59.8% and 61.3%. For the same molecule, the viability, T/C (compound 10 µM) is 16.9% and 16.3% and 16.1%.

As to `CC1COCCN1c1cc(-c2ccnn2C)c2ccnc(-c3ccn[nH]3)c2n1` (stereo not given), the IC50 was 61.9 nM and 55.2 nM and 52.7 nM. For the same molecule, the viability, T/C (compound 0.0316 µM) is 81.8% and 73% and 68.8%. Also, for the setting “compound 0.1 µM”, the viability, T/C is 26.6% and 25.6% and 26.2%. The viability, T/C (compound 0.316 µM) was 11.2% and 10.4% and 10.8%. Further, the viability, T/C (compound 1 µM) was 7.62% and 7.53% and 5.64%. Besides, the viability, T/C (compound 3.16 µM) is 4.7% and 5.08% and 4.64%. Moreover, under “compound 10 µM”, the viability, T/C is 3.56% and 3.83% and 3.46%.

For `CC1COCCN1c1cc(C2(O)CC3CCC(C2)O3)c2cnn(-c3ccn[nH]3)c2n1` (stereo not given), the IC50 was 32.6 nM and 39.6 nM and 32.3 nM. In addition, the viability, T/C (compound 0.0316 µM) is 51.5% and 57.1% and 50.6%. The viability, T/C (compound 0.1 µM) was 16.8% and 21.7% and 20.7%. For the same molecule, the viability, T/C (compound 0.316 µM) is 7.14% and 8.09% and 7.26%. In addition, under “compound 1 µM”, the viability, T/C was 4.84% and 5.33% and 5.42%. In addition, where the note is “compound 3.16 µM”, the viability, T/C is 2.68% and 4.74% and 3.78%. For the same molecule, the viability, T/C (compound 10 µM) is 1.72% and 2.09% and 2.04%.

For the molecule `CC1COCCN1c1cc(C2(S(C)(=N)=O)CC2)nc(-c2ccnc3[nH]ccc23)n1` (stereo not given), the IC50 is 1260 nM and 881 nM and 2970 nM. The viability, T/C (compound 0.0316 µM) is 105% and 96.1% and 78.7%. Also, where the note is “compound 0.1 µM”, the viability, T/C is 73.3% and 84.4% and 94.9%. Besides, the viability, T/C (compound 0.316 µM) is 95.4% and 94.3% and 89.6%. Moreover, the viability, T/C (compound 1 µM) was 59.5% and 44.8% and 50.7%. Further, the viability, T/C (compound 3.16 µM) was 12.6% and 14.1% and 58.1%. The viability, T/C (compound 10 µM) was 7% and 6.85% and 8.5%.

In the case of `CCCS(=O)(=O)Nc1ccc(F)c(C(=O)c2c[nH]c3ncc(-c4ccc(Cl)cc4)cc23)c1F`, the IC50 is 4800 nM and 4380 nM and 3780 nM. The viability, T/C (compound 0.0316 µM) was 105% (2×) and 108%. The viability, T/C (compound 0.1 µM) was 96.1% and 96.3% and 95.1%. Besides, under “compound 0.316 µM”, the viability, T/C was 106% and 108% and 97.5%. Moreover, the viability, T/C (compound 1 µM) is 103% and 80.5% and 96.6%. Besides, the viability, T/C (compound 3.16 µM) is 66.4% and 67.2% and 56.1%. Besides, the viability, T/C (compound 10 µM) is 21.1% and 13.8% and 16.5%.

Take `CC[C@@]1(O)C(=O)OCc2c1cc1n(c2=O)Cc2cc3c(CN(C)C)c(O)ccc3nc2-1`: the IC50 is 24.8 nM and 26.6 nM and 20.1 nM. Moreover, the viability, T/C (compound 0.000999 µM) was 107% and 86.8% and 96.1%. Further, the viability, T/C (compound 0.00316 µM) is 92.1% and 95.8% and 83%. For the setting “compound 0.00999 µM”, the viability, T/C was 83.8% and 92.3% and 80.7%. For the same molecule, the viability, T/C (compound 0.0316 µM) is 42.3% and 42.6% and 30.4%. The viability, T/C (compound 0.0999 µM) was 10.7% and 11.3% and 11%. Further, the viability, T/C (compound 0.316 µM) is 11.4% and 10.2% and 9.99%.

On to `CCc1c2c(nc3ccc(O)cc13)-c1cc3c(c(=O)n1C2)COC(=O)[C@]3(O)CC`, for which the IC50 was 1 nM and < 0.999 nM. The viability, T/C (compound 0.000999 µM) is 50.7% and 46.3% and 39%. Moreover, the viability, T/C (compound 0.00316 µM) was 13.2% and 15%. The viability, T/C (compound 0.00999 µM) was 10.7% and 11.2% and 9.68%. The viability, T/C (compound 0.0316 µM) was 8.77% and 9.76% and 9.57%. Where the note is “compound 0.0999 µM”, the viability, T/C is 4.33% and 4.71% and 5.08%. Where the note is “compound 0.316 µM”, the viability, T/C is 1.32% and 1.27% and 1.78%.
